Values joined by “and” are separate entries in the source; they are usually repeats but may differ in a detail not shown here. Equal entries are not always repeated. “Also recorded” adds a separate entry of the source.
Experiments:
[1] = Safety in clinical trials; format: in vivo, human; settings: extensive clinical trials
BKV [2] = assay: In vitro antiviral activity in cell culture; format: cell-based
clinical = settings: male, human, plasma, 40 mg
BKV [3] = assay: Study HDP-CDV-201: hematuria and BKV bladder events; format: in vivo, human
Experimental: A multicenter, randomized, double-blind, placebo-controlled, dose-escalation study of safety, tolerability, and ability of HDP-CDV to prevent or control […], and EBV infection and associated disorders was conducted. During enrollment of patients in the study, urine samples of candidate patients were routinely screened for BKV. Plasma was collected from patients who tested positive for BKV viruria in urine, and AdV, EBV and BKV level in the plasma was evaluated.

HSV-1 = assay: In vitro antiviral activity in cell culture; format: cell-based; settings: Human alphaherpesvirus 1; HSV-1, cell culture
EBV = assay: In vitro antiviral activity in cell culture; format: cell-based; settings: human gammaherpesvirus 4
[4] = Phase 1 comparative bioavailability (solution vs tablet) and food effect study; settings: for Plasma HDP-CDV CL/F / Plasma HDP-CDV Tmax / Plasma HDP-CDV AUC0-inf / Plasma HDP-CDV AUC0-last / Plasma HDP-CDV Cmax / Plasma HDP-CDV t1/2: single oral dose; for Plasma HDP-CDV CL/F / Plasma HDP-CDV Tmax / Plasma HDP-CDV AUC0-inf / Plasma HDP-CDV AUC0-last / Plasma HDP-CDV Cmax / Plasma HDP-CDV t1/2 / Plasma Cidofovir CL/F: healthy volunteers; for Plasma HDP-CDV CL/F / Plasma HDP-CDV AUC0-inf / Plasma HDP-CDV AUC0-last / Plasma HDP-CDV Cmax / Plasma HDP-CDV t1/2 / Plasma Cidofovir CL/F: mean; for Plasma HDP-CDV Tmax: median;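 for all read-outs here: plasma levels quantified by validated LC-MS/MS, LLOQ 0.1 ng/mL for HDP-CDV and 0.5 ng/mL for CDV, crossover design with 14-day washout between single doses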
ADV = assay: HDP-CDV given to patients with viral infections, virology data
HHV-6(B) = assay: In vitro antiviral activity in cell culture; format: cell-based
[5] = 40 mg tablet, fed (high fat breakfast)
[6] = patient 21 mo, 10 kg, 2 mg/kg BIW
[7] = patient, 67 kg, 2 mg/kg BIW, 4 mg/kg BIW
[8] = patient, 70 kg, 2 mg/kg every three days

CCCCCCCCCCCCCCCCOCCCOP(=O)(O)COC(CO)Cn1ccc(N)nc1=O (stereo not drawn) [HDP-CDV]
myelosuppression or nephrotoxicity [1]: has not been associated with either myelosuppression or nephrotoxicity
EC50 (BKV [2]): 130 nM
AUC(0-inf) (clinical; oral): 476 ng·h/mL
AUC(0-t) (clinical; oral): 457 ng·h/mL
Cmax (clinical; oral): 70.5 ng/mL
AUC(0-inf) (clinical; po): 574 ng·h/mL
AUC(0-t) (clinical; po): 549 ng·h/mL
Cmax (clinical; po): 77.7 ng/mL
Vd/F (clinical; po): 831 L
half-life (clinical; po): 484 min
developed Hem+ during the Study (BKV [3]; BK viruria positive (BKU+) at Baseline, 4 of 77, placebo 33%): 5%
clinical bladder adverse events related to BKV (BKV [3]; BKU+ subjects at Baseline (6/77), placebo 12.5-13%): 8% and 7.8%
Hem+ (BKV [3]; BKU− subjects): 4%
Hem+ vs placebo (BKV [3]; BKV viruria negative (BKU−) at baseline, FIG. 1): no significant difference
BKV associated adverse bladder events (BKV [3]; HDP-CDV treatment vs placebo): decreased frequency; also recorded: decreased the incidence; also recorded: beneficial effect
rate of confirmed blood positive urinalyses relative to placebo-treated subjects (BKV [3]; HDP-CDV- compared to placebo-treated): ⅙^th
Hematuria (Hem+) vs placebo (BKV [3]; HSCT patients with BKV at base line (BKU+), FIG. 1): prevented Hematuria; also recorded: reduces hematuria
BK-related bladder events (cystitis or blood in urine) (BKV [3]; all HDP-CDV subjects (6/171), placebo 5.1%): 3.5%
rate of blood positive urinalyses during the treatment period (BKV [3]; all HDP-CDV-treated subjects (8/171), placebo 15.2%): 4.7%
subjects with BK-related bladder AEs (BKV [3]; received 40 mg QW): 2
microscopic hematuria (BKV [3]; subjects shedding BKV in their urine): reduction in microscopic hematuria
BK-related bladder AEs (BKV [3]; subjects who received doses >100 mg QW (4/171)): 2.3%
difference between pooled HDP-CDV- and placebo-treated groups in rates of confirmed blood positive urinalyses (BKV [3]; subjects with BKV viruria during the treatment period): ~6 fold
rate of confirmed blood positive urinalyses (BKV [3]; subjects with BKV viruria during the treatment period (4/171), placebo 13.6%): 2.3%
rate of blood positive urinalyses (BKV [3]; subjects without BK viruria, placebo 1.7%): 2.4%
EC50 (HSV-1): 60 nM
EC50 (EBV): 40 nM
Plasma HDP-CDV CL/F ([4]; 40 mg solution, fasted): 77.5 L/h
Plasma HDP-CDV Tmax ([4]; 40 mg solution, fasted): 2.00 h
Plasma HDP-CDV AUC0-inf ([4]; 40 mg tablet, fasted): 496 ng·h/mL
Plasma HDP-CDV AUC0-last ([4]; 40 mg tablet, fasted): 473 ng·h/mL
Plasma HDP-CDV CL/F ([4]; 40 mg tablet, fasted): 86.1 L/h
Plasma HDP-CDV Cmax ([4]; 40 mg tablet, fasted): 73.9 ng/mL
Plasma HDP-CDV t1/2 ([4]; 40 mg tablet, fasted): 7.52 h
Plasma HDP-CDV Tmax ([4]; 40 mg tablet, fasted): 3.00 h
Plasma HDP-CDV AUC0-inf [4, 5]: 367 ng·h/mL
Plasma HDP-CDV AUC0-last [4, 5]: 340 ng·h/mL
Plasma HDP-CDV CL/F [4, 5]: 119 L/h
Plasma HDP-CDV Cmax [4, 5]: 39.4 ng/mL
Plasma HDP-CDV t1/2 [4, 5]: 6.65 h
Plasma HDP-CDV Tmax [4, 5]: 6.00 h
food effect on HDP-CDV absorption and bioavailability ([4]; 40 mg tablet, high fat meal vs fasted): reduced peak concentration and delayed Tmax; also recorded: significant food effect
Plasma Cidofovir CL/F ([4]; after 40 mg HDP-CDV solution, fasted): 40.8 L/h
Plasma Cidofovir CL/F ([4]; after 40 mg HDP-CDV tablet, fasted): 44.3 L/h
Plasma Cidofovir CL/F ([4]; after 40 mg HDP-CDV tablet, fed): 46.9 L/h
food effect on CDV concentrations ([4]; after 40 mg HDP-CDV tablet, high fat meal vs fasted): unaffected by the presence of food; also recorded: no food effect
HDP-CDV Ln(AUCinf) Test Geometric LSM ([4]; fed tablet (test), TOST): 343.5310 ng·h/mL
HDP-CDV Ln(AUClast) Test Geometric LSM ([4]; fed tablet (test), TOST): 323.8453 ng·h/mL
HDP-CDV Ln(Cmax) Test Geometric LSM ([4]; fed tablet (test), TOST): 37.0360 ng/mL
HDP-CDV Ln(AUCinf) Ratio [% Ref] ([4]; in vivo): 72.17 % Ref
HDP-CDV Ln(AUClast) Ratio [% Ref] ([4]; in vivo): 70.89 % Ref
HDP-CDV Ln(Cmax) Ratio [% Ref] ([4]; in vivo): 52.56 % Ref
absorption following a single oral administration ([4]; solution and tablet formulation, 40 mg): readily absorbed
ADV in stool on therapy (ADV; patient 9 months, 6.58 kg, disseminated ADV, 3 mg/kg BIW): decreased by a similar amount.
stool ADV decline (ADV; patient 16 mo, 10.4 kg, 4 mg/kg BIW, 3 weeks): ADV declined approximately 1 log10 over
Plasma ADV after 3 weeks of therapy (ADV; patient 16 mo, 10.4 kg, 4 mg/kg BIW, from 809 c/ml): declined from 809 c/ml to undetectable
plasma ADV viremia after discontinuation (rebound) (ADV; [6]): CDV when it rebounded to 100 copies/ml.
response in stool viral load (ADV; [6]): load (<10-fold).
plasma ADV viremia on treatment (ADV; patient 21 mo, 10 kg, 2 mg/kg BIW, baseline 100 copies/mL): became undetectable and stayed
decrease in plasma ADV (ADV; patient, 14.1 kg, 4 mg/kg BIW): ADV2. A ~2 log10 decrease in plasma
ADV in blood 4 days after one dose (ADV; patient, 19.1 kg, disseminated ADV, 60 mg BIW, from 51,000 c/mL): 100 c/mL in 4 days after one dose.
Adenovirus decline in plasma (ADV; patient, 65 kg, 2 mg/kg BIW, to the limit of detection): ADV 5 (plasma). Adenovirus declined 2.6 log10
ADV viruria initial decline (ADV; [7]): respond well initially with a 2.4 log10
ADV viruria rebound, distance from baseline (ADV; [7]): decline only to rebound to within 0.7 log10
ADV plasma viremia decline (ADV; patient, 67 kg, 2 mg/kg BIW, 4 mg/kg BIW, from 5.1 log10 to the limit of detection): declined 3.1 logs from 5.1 log10 to the limit
ADV viremia approximately two weeks after D/C (ADV; [8]): HDP-CDV, ADV viremia rebounded.
Colon biopsy for ADV after therapy (ADV; [8]): negative
ADV viremia decrease (ADV; patient, 70 kg, 2 mg/kg every three days, after 3 weeks): > 3 log10
ADV viremia after 3 weeks (ADV; patient, 70 kg, 2 mg/kg every three days, from 430,000 copies/mL): copies/mL to undetectable after 3 weeks
stool viral load (ADV; patient, 81 kg, ADV pneumonia, 2 mg/kg BIW): modest decline in stool viral load.
Plasma ADV decline (ADV; patient, 81 kg, ADV pneumonia, 2 mg/kg BIW, 10 days/4 doses): ADV 12. Plasma ADV declined 2.4 log10
ADV viremia decrease (ADV; patient, 108 kg, 3 mg/kg first dose, 2 mg/kg BIW thereafter, after approximately 2-3 weeks): ~2 log10
ADV viremia after first two weeks (ADV; patient, 4 mg/kg BIW, 3 doses, from 1.5 million): ADV viremia from 1.5 million to 98,000 c/ml
decrease in ADV viremia (ADV; patient, 4 mg/kg BIW, first two weeks, 3 doses): This patient had a 1.2 log10 decrease in
EC50 (HHV-6(B)): 7 nM
